In ChEMBL document CHEMBL2046380, “Synthesis and structure-activity relationship of disubstituted benzamides as a novel class of antimalarial agents” (Bioorg Med Chem Lett, 2012) one finds EC50 data, which are given here for 33 compounds.

For assay [1], the system named is Plasmodium falciparum. As to the kind of experiment: Antimalarial activity against […] incubated for 72 hrs by DNA staining based MARK1 growth inhibition assay. The assay is classed as functional, organism-based.
For assay [2], the system named is Plasmodium falciparum. The assay is described as follows: Antimalarial activity against chloroquine-sensitive Plasmodium falciparum 3D7 incubated for 72 hrs by DNA staining based MAR3D7 growth inhibition assay. The assay is classed as functional, organism-based. As to conditions: 3D7, 72 h.
The test system of assay [3] is HepG2. The assay is described as follows: Cytotoxicity against human HepG2 cells after 72 hrs by […] CellTiterGlo reagent assay. The class given is cell-based. As to conditions: HepG2, 72 h. Background: Resazurin is reduced to fluorescent resorufin, in cell work by metabolically active cells.
Assay [4] deals with Raji. The assay is described as follows: Cytotoxicity against human Raji cells after 72 hrs by […] CellTiterGlo reagent assay. The class given is cell-based.
Assay [5] concerns BJ. As to the kind of experiment: Cytotoxicity against human BJ cells after 72 hrs by […] CellTiterGlo reagent assay. The class given is cell-based.
For assay [6], the system named is HEK293. As to the kind of experiment: Cytotoxicity against human HEK293 cells after 72 hrs by […] CellTiterGlo reagent assay. The assay is classed as cell-based. To be noted: HEK293, 72 h.

By EC50 is commonly meant the midpoint of the concentration-response curve. As for `C=CCCC(=O)NCC1(c2ccc3c(c2)OCO3)OCCO1`, the EC50 is above 7.51 µM in assay [1]; above 7.51 µM in assay [2]; above 13 µM in assay [3]; above 13 µM in assay [4]; above 13 µM in assay [5]; above 13 µM in assay [6].
With `CCOC(=O)CCCCCOc1cccc(CN(C(=O)c2ccccc2)C(C)C)c1`, the EC50 in assay [1] was above 12.5 µM; in assay [2], above 15 µM; in assay [3] it was above 26 µM; in assay [4] it was above 26 µM; in assay [5], above 26 µM; in assay [6] it was above 26 µM.
On to `CC(C)N(Cc1cccc(OCCCCCC(=O)O)c1)C(=O)c1ccc(-c2ccc3ccccc3c2)cc1`, for which the EC50 in assay [1] is above 15 µM; in assay [2] it was below 0.0004 µM; in assay [3], above 26 µM; in assay [4], above 26 µM; in assay [5] it was above 26 µM; in assay [6], above 26 µM.
For the compound `CC(C)N(Cc1cccc(OCCCCCC(=O)O)c1)C(=O)c1ccc(-c2cccc(OC(F)(F)F)c2)cc1`, the EC50 in assay [1] is above 15 µM; in assay [2], above 15 µM; in assay [3], above 26 µM; in assay [4], above 26 µM; in assay [5], above 26 µM; in assay [6], above 26 µM.
Turning to `CCOC(=O)CCCCCOc1cccc(CN(C(=O)c2ccc(-c3ccc4c(c3)OCO4)cc2)C(C)C)c1`, the 50% effective concentration (EC50) in assay [1] is above 12.5 µM; in assay [2] it was above 12.5 µM; in assay [3], above 22.6 µM; in assay [4], above 22.6 µM; in assay [5], above 22.6 µM; in assay [6], above 22.6 µM.
In the case of `CC(C)N(Cc1cccc(OCCCCCC(=O)O)c1)C(=O)c1ccc(-c2cccc(O)c2)cc1`, the EC50 in assay [1] was above 15 µM; in assay [2], above 15 µM; in assay [3], above 26 µM; in assay [4], above 26 µM; in assay [5], above 26 µM; in assay [6] it was above 26 µM.
Consider `CC(C)N(Cc1cccc(OCCCCCC(=O)O)c1)C(=O)c1ccc(-c2cc3ccccc3n2S(=O)(=O)c2ccccc2)cc1`, for which the EC50 in assay [1] is above 15 µM; in assay [2] it was above 15 µM; in assay [3] it was above 26 µM; in assay [4], above 26 µM; in assay [5] it was above 26 µM; in assay [6], above 26 µM.
As to `CCOC(=O)CCCCCOc1cccc(CN(C(=O)c2ccc(-c3ccc4c(c3)OCCO4)cc2)C(C)C)c1`, the EC50 in assay [1] was above 13.5 µM; in assay [2] it was above 13.5 µM; in assay [3], above 24.5 µM; in assay [4] it was above 24.5 µM; in assay [5], above 24.5 µM; in assay [6] it was above 24.5 µM.
On to `CCCN(Cc1cccc(OCCCCCC(=O)OCC)c1)C(=O)c1ccc(-c2ccc3c(c2)OCO3)cc1`, for which the EC50 was above 15 µM in assay [1]; above 15 µM in assay [2]; above 26 µM in assay [3]; above 26 µM in assay [4]; above 26 µM in assay [5]; above 26 µM in assay [6].
Consider `CCOC(OCC)C1=NCCc2cc(OC)c(OC)cc21`, for which the EC50 in assay [1] is above 7.51 µM; in assay [2], above 7.51 µM; in assay [3], above 13 µM; in assay [4], above 13 µM; in assay [5], above 13 µM; in assay [6], above 13 µM.
On to `C=CCCC(=O)NC[C@H](O)c1ccc2c(c1)OCO2`, for which the EC50 was above 7.51 µM in assay [1]; above 7.51 µM in assay [2]; above 13 µM in assay [3]; above 13 µM in assay [4]; above 13 µM in assay [5]; above 13 µM in assay [6].
`CCOC(=O)CCCCCOc1cccc(CN(C(=O)c2ccc(-c3ccoc3)cc2)C(C)C)c1`: the EC50 in assay [1] was above 15 µM; in assay [2] it was above 15 µM; in assay [3], above 26 µM; in assay [4], above 26 µM; in assay [5], above 26 µM; in assay [6] it was above 26 µM.
Turning to `COc1cccc(-c2ccc(C(=O)N(Cc3cccc(OCCCCCC(=O)O)c3)C(C)C)cc2)c1`, the EC50 in assay [1] is above 11.6 µM; in assay [2], above 11.6 µM; in assay [3], above 26 µM; in assay [4] it was above 21 µM; in assay [5], above 21 µM; in assay [6] it was above 21 µM.
On to `CCOC(=O)CCCCCOc1cccc(CN(C(=O)c2ccc(-c3cccc(OCC)c3)cc2)C(C)C)c1`, for which the EC50 in assay [1] was above 12.4 µM; in assay [2] it was above 12.4 µM; in assay [3], above 22.4 µM; in assay [4] it was above 22.4 µM; in assay [5], above 22.4 µM; in assay [6], above 22.4 µM.
For the compound `O=C(O)c1cc(-c2ccco2)nc2ccccc12`, the EC50 in assay [1] was above 15 µM; in assay [2] it was above 15 µM; in assay [3] it was above 26 µM; in assay [4], above 26 µM; in assay [5], above 26 µM; in assay [6] it was above 26 µM.
As to `CCOC(=O)CCCCCOc1cccc(CN(C(=O)c2ccc(-c3cccc(Cl)c3)cc2)C(C)C)c1`, the EC50 is above 10.2 µM in assay [1]; above 10.2 µM in assay [2]; above 18.5 µM in assay [3]; above 18.5 µM in assay [4]; above 18.5 µM in assay [5]; above 18.5 µM in assay [6].
On to `CCOC(=O)CCCCCOc1cccc(CN(C(=O)c2ccc(-c3cccc(OCc4ccccc4)c3)cc2)C(C)C)c1`, for which the EC50 in assay [1] was above 15 µM; in assay [2], above 15 µM; in assay [3], above 26 µM; in assay [4], above 26 µM; in assay [5] it was above 26 µM; in assay [6], above 26 µM.
`COc1ccc(CCNC(=O)CCCCC(C)=O)cc1OC`: the EC50 in assay [1] was above 7.51 µM; in assay [2] it was above 7.51 µM; in assay [3], above 13 µM; in assay [4], above 13 µM; in assay [5], above 13 µM; in assay [6] it was above 13 µM.
Take `CCOC(=O)CCCCCOc1ccc(C=O)cc1`: the EC50 in assay [1] was above 15 µM; in assay [2] it was 0.0584 µM; in assay [3], above 26 µM; in assay [4] it was above 26 µM; in assay [5] it was above 26 µM; in assay [6], above 26 µM.
With `CC(C)N(Cc1cccc(OCCCCCC(=O)O)c1)C(=O)c1ccccc1`, the EC50 is 0.0074 µM in assay [1]; above 15 µM in assay [2]; above 26 µM in assay [3]; above 26 µM in assay [4]; above 26 µM in assay [5]; above 26 µM in assay [6].
Take `CCOC(=O)CCCCCOc1cccc(CN(C(=O)c2ccc(-c3cccc(CC(=O)O)c3)cc2)C(C)C)c1`: the EC50 is above 15 µM in assay [1]; above 15 µM in assay [2]; above 26 µM in assay [3]; above 26 µM in assay [4]; above 26 µM in assay [5]; above 26 µM in assay [6].
For `CCOC(=O)CCCCCOc1ccc(CO)cc1`, the EC50 in assay [1] was above 15 µM; in assay [2] it was above 15 µM; in assay [3], above 27.2 µM; in assay [4], above 27.2 µM; in assay [5] it was above 27.2 µM; in assay [6], above 27.2 µM.
Consider `CCOC(=O)CCCCCOc1cccc(CN(C(=O)c2ccc(-c3cccc(Oc4ccccc4)c3)cc2)C(C)C)c1`, for which the EC50 was above 10.9 µM in assay [1]; above 10.9 µM in assay [2]; above 26 µM in assay [3]; above 19.7 µM in assay [4]; above 19.7 µM in assay [5]; above 19.7 µM in assay [6].
Turning to `COC(=O)c1cc(-c2cccs2)nc2ccccc12`, the EC50 in assay [1] is above 15 µM; in assay [2] it was above 15 µM; in assay [3] it was above 26 µM; in assay [4], above 26 µM; in assay [5], above 26 µM; in assay [6] it was above 26 µM.
As to `COc1cc(C)ccc1OCCOc1ccccc1F`, the EC50 was above 15 µM in assay [1]; above 15 µM in assay [2]; above 26 µM in assay [3]; above 26 µM in assay [4]; above 26 µM in assay [5]; above 26 µM in assay [6].
`CCOC(=O)CCCCCOc1cccc(CN(C(=O)c2ccc(-c3cc(OC)ccc3F)cc2)C(C)C)c1`: the EC50 in assay [1] was above 15 µM; in assay [2] it was above 15 µM; in assay [3], above 26 µM; in assay [4], above 26 µM; in assay [5], above 26 µM; in assay [6], above 26 µM.
In the case of `CCCNCc1ccccc1OCCCCCC(=O)OCC`, the EC50 is above 15 µM in assay [1]; above 15 µM in assay [2]; above 26 µM in assay [3]; above 26 µM in assay [4]; above 26 µM in assay [5]; above 26 µM in assay [6].
On to `CC(C)N(Cc1cccc(OCCCCCC(=O)O)c1)C(=O)c1ccc(-c2cccc(N(C)C)c2)cc1`, for which the EC50 in assay [1] was above 15 µM; in assay [2], above 15 µM; in assay [3] it was above 26 µM; in assay [4] it was above 26 µM; in assay [5], above 26 µM; in assay [6] it was above 26 µM.
With `CCOC(=O)CCCCCOc1ccc(C(O)O)cc1`, the EC50 in assay [1] was above 15 µM; in assay [2], above 15 µM; in assay [3] it was above 27.2 µM; in assay [4], above 27.2 µM; in assay [5], above 27.2 µM; in assay [6], above 27.2 µM.
Take `CCOC(=O)CCCCCOc1ccccc1C=O`: the EC50 is above 15 µM in assay [1]; above 15 µM in assay [2]; above 26 µM in assay [3]; above 26 µM in assay [4]; above 26 µM in assay [5]; above 26 µM in assay [6].
Take `CCOC(=O)CCCCCOc1cccc(CN(C(=O)c2ccc(-c3ccco3)cc2)C(C)C)c1`: the EC50 in assay [1] is above 15 µM; in assay [2], above 15 µM; in assay [3] it was above 26 µM; in assay [4] it was above 26 µM; in assay [5] it was above 26 µM; in assay [6] it was above 26 µM.
Take `CC(C)N(Cc1cccc(OCCCCCC(=O)O)c1)C(=O)c1ccc(-c2ccco2)cc1`: the EC50 in assay [1] is above 15 µM; in assay [2], above 15 µM; in assay [3], above 26 µM; in assay [4], above 26 µM; in assay [5], above 26 µM; in assay [6], above 26 µM.
Turning to `CCOC(=O)CCCCCOc1ccccc1CNC(C)C`, the EC50 in assay [1] is above 15 µM; in assay [2], above 15 µM; in assay [3], above 26 µM; in assay [4], above 26 µM; in assay [5] it was above 26 µM; in assay [6], above 26 µM.
